Seven molecules from patent US10364263B2, “Cyclic phosphates and cyclic phosphoramidates for the treatment of neurologic disorders” (Retrophin, Inc., priority 2015, dated 2019) can be followed below.

Data set [1] can be described thus: Stability in mouse hepatocytes. In kind it is in vitro ADME.
A short description of a further data set: physchem. Conditions: buffer, phosphate buffered saline, 10 mM phosphate buffer pH 7.5, 37° C.
Data set [2] is described as follows: Permeability in porcine brain endothelial cell blood-brain barrier model. In kind it is in vitro ADME. As to conditions: pig (endothelial cells), co-cultured with rat astrocytes, pH 7.4, PBECs/As blood-brain barrier model, luminal to basal; Diastereoisomer A; read-out: Papp Diastereoisomer A. An excerpt:
Compounds disclosed herein show the potential to reach mammalian brain by crossing the blood-brain barrier (BBB) from systemic circulation. […] The porcine brain endothelial cell permeability assay is an in vitro BBB model to be used for the prediction of central nervous system (CNS) drug permeability in vivo and for ranking or prioritization of compounds according to their permeability. This system can also be used for mechanistic studies and drug delivery strategies via receptor-mediated transport (transcytosis). The system is a two-dimensional co-culture, non-contact model of two types of primary cells: primary brain endothelial cells obtained from fresh porcine brains, and primary rat astrocytes, obtained from neonatal rats. This ensures barrier formation and functional expression of key transporters.
The endothelial cells were cultured on rat-tail collagen type I and human fibronectin coated Transwell polycarbonate inserts (surface area 0.7 cm^2; pore size 0.4 μm) and the inserts were placed in 24-well plates containing confluent rat astrocytes. This system allows for the formation of a differentiated BBB model suitable for compound permeability in 10 days.
On the day of the experiment, culture medium was removed and cells were pre-incubated for 30 min with HBSS containing 20 mM Hepes pH 7.4 and 0.1% BSA. Donor volume (apical) was 400 μl and receiver volume (basal) 900 μl. Compounds were diluted in assay medium (at the desired concentration) and added to the luminal side (to mimic blood to brain passage). Transport was measured usually after 60 min by detecting the amount of compound from the basal (brain side). The integrity of the cell layers was assessed by measuring the transendothelial electrical resistance (TEER) and by monitoring FITC-dextran (40 KDa) permeation. Inserts with TEER values […] were selected for permeability studies. As FITC-dextran cannot freely permeate lipophilic barriers, a high degree of FITC-dextran transport indicates poor integrity of the cell layer and wells with high FITC-dextran permeability were excluded. FITC-dextran was included as internal control in each insert used for permeability studies. Fluorescence was measured using a fluorimetric detector. Radioactivity was measured by scintillation counting. For LC-MS/MS analysis, aliquots (200 μl) from the basal compartment were diluted with an equal volume of 100% acetonitrile containing 0.1% formic acid, centrifuged to remove cell debris, and evaporated under N2. After reconstitution, samples were analyzed by LC-MS/MS. Mass balance was determined considering the amount of compound recovered in the donor and receiver chamber at the end of the assay relative to the amount added to the donor chamber at time 0.
Permeability was defined as the apparent permeability coefficient (Papp), which is a measure of the appearance rate of the compound in the receiver chamber, expressed in cm/s. Papp is calculated according the following equation: Papp[cm/sec]=Vd*ΔMr/A*Md*Δt, Equation 2: where
Vd=volume in the donor compartment in cm^3 or mL;
ΔMr=total amount of compound in the receiver compartment after t seconds;
Md=donor amount (added at time 0)
Δt=time measured in seconds
A=filter area in cm^2 (for 24 well plate, A=0.7 cm^2).
To correct for the contribution of filter and substrate, Papp was also determined for the cell-free system. Permeability of the endothelial cell layer was determined using the following equation: […], Equation 3: where
Ptotal=the P of the total system,
Pf=P for the cell-free filter, and
Pe=P for the endothelial cell layer alone. In this equation, the total resistance of the system towards passage of a substance is additively composed of two […] resistances: that of the cell monolayer and that of the filter.

Data set [3] in a line: Stability in human hepatocytes. Type of data set: in vitro ADME. As to conditions: for half-life: Diastereoisomer A (upfield shift in 31P NMR), 5 μM, 1 million cells/ml, 37° C., human hepatocytes, read-out: t1/2, Human Hepatocytes, Diastereoisomer A (converted); for half-life at 5 µM: t1/2, Human Hepatocytes.
Data set [4] deals with PANK2 silenced human neuroblastoma IMR32 cells (PANK2−/−). Briefly: Coenzyme A assay in PANK2 silenced cells (LC-MS quantification of free CoA). As to conditions: compound added twice (24 h + 24 h), relative to 0.1% DMSO controls. Type of data set: cell-based. The procedure, abridged: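 PANK2 shRNA-silenced IMR32 neuroblastoma cells were treated with compound (0.1% DMSO) for 24 h, then re-dosed with fresh compound for a further 24 h at 37 °C. TFA extracts of 1×10^6 cells were assayed for free CoA by LC-MS/MS (MRM 768.1→261.6/136.1). Results are given as fold change versus DMSO controls.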

Data set [5] can be described thus: Stability in human plasma. In kind it is in vitro ADME. Conditions: human, plasma, 37° C. The procedure, abridged:
(§1)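 Test compound at 3 μM (0.1% DMSO) was incubated in mouse or human plasma at 37 °C and sampled in duplicate at 0, 10, 20, 30, 40 and 60 min. Reactions were stopped with acetonitrile/formic acid containing internal standard. Remaining parent was measured by UPLC-MS/MS without a calibration curve.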

The nature of data set [6]: Chemical stability in aqueous solution (phosphate buffered saline, NMR). Conditions: 10 mM phosphate buffer pH 7.5, 37° C.
Experimental: (§2) To measure chemical stability in aqueous solution, the half-life (t1/2), or time needed for the concentration to decrease by half, was determined for select compounds in phosphate buffered saline solution. Compounds were dissolved in a solution containing 10 mM phosphate buffer (pH 7.5) and 5% of D2O to a final concentration of −1 mM. All spectra were obtained at 37° C. on a Bruker Avance 600 NMR spectrometer equipped with an inverse broad-band probe with z-gradients. Data were obtained every 15 min for a total time period of 4 h or longer, according to the observed stability. ^31P NMR was performed at 242.55 MHz, with gated decoupling of the protons. An observation frequency range of 14619.9 Hz and 32 K complex data points were used for acquisition. A pulse angle of 90° and a 4-sec pulse cycle were utilized. Thirty-two accumulations were obtained before Fourier transformation of the free induction decay. ^1H NMR spectra were acquired using the 1DNOESY experiment with water presaturation for better solvent suppression. An observation frequency range of 12019.23 Hz, a 10-sec pulse cycle, and 32 K complex data points were used for acquisition. Sixty-four scans were added prior to Fourier transformation. Integral data were obtained using the TopSpin software.
(§3) Stability was determined based on analysis of disappearance of the compounds as a function of incubation time. Quantification of test compounds was measured as a peak area relative to an internal standard. The elimination constant, k, was calculated by plotting mean disappearance values on a semi-logarithmic scale and fitting with a best fit linear regression. The half-life (t1/2) expressed in hours was derived using Equation 1: t1/2=ln2/(−k). Equation 1:
Data set [7] is described as follows: Stability in mouse plasma. In kind it is in vitro ADME. Conditions: mouse, plasma. The procedure, abridged: as §1
Where [8] appears, read: Diastereoisomer A (upfield shift in 31P NMR), 5 μM, 1 million cells/ml, 37° C., mouse hepatocytes, read-out: t1/2, Mouse Hepatocytes, Diastereoisomer A (converted).
[9] abbreviates: pH 7.5, t1/2 (h) Diastereoisomer A, Diastereoisomer A = upfield shift in the 31P NMR.
Setting [10] is: pH 7.5, t1/2 (h) Diastereoisomer B, Diastereoisomer B.
Setting [11] is: t1/2, Mouse Hepatocytes, Diastereoisomer A.

Experimental for physchem: as §2, §3

With `COC(=O)CCNC(=O)[C@@H]1O[P@@](=O)(NCc2ccccc2)OCC1(C)C` [Compound No. 115, Methyl 3-((2R,4R)-2-(benzylamino)-5,5-dimethyl-2-oxido-1,3,2-dioxaphosphinane-4-carboxamido)propanoate], in data set [1] (setting [8]), the half-life at 5 µM was under 0.25 h. The half-life in “physchem” (setting [9]) is over 60 h; in data set [3] it was 0.64 h. Also, the Papp A→B at 60 min in data set [2] stood at 4.03 ×10⁻⁶ cm/s.
As to `CCC(CC)COC(=O)[C@H](C)NP1(=O)OCC(C)(C)[C@H](C(=O)NCCC(=O)OC)O1` (stereo partly drawn) [compound 7, 2-ethylbutyl ((4R)-4-((3-methoxy-3-oxopropyl)carbamoyl)-5,5-dimethyl-2-oxido-1,3,2-dioxaphosphinan-2-yl)-L-alaninate], the half-life in “physchem” (setting [9]) is over 40 h. Moreover, in data set [4], the “PANK2−/− CoA (Fold Increase): fold increase in Coenzyme A (CoA) levels relative to controls” value is 1.56 Fold Increase.
Turning to `COC(=O)CCNC(=O)[C@@H]1OP(N)(=O)OCC1(C)C` (stereo partly drawn) [compound 114, methyl 3-((4R)-2-amino-5,5-dimethyl-2-oxido-1,3,2-dioxaphosphinane-4-carboxamido)propanoate], the half-life in the data set “physchem” (setting [9]) and in “physchem” (setting [10]) was over 40 h each time.
For the molecule `COC(=O)CCNC(=O)[C@@H]1OP(=O)(N[C@H]2CN[C@@H](C(=O)OC)C2)OCC1(C)C` (stereo partly drawn) [compound 132, methyl (2R,4R)-4-(((4R)-4-((3-methoxy-3-oxopropyl)carbamoyl)-5,5-dimethyl-2-oxido-1,3,2-dioxaphosphinan-2-yl)amino) pyrrolidine-2-carboxylate], the half-life at 5 µM in data set [1] (setting [8]) was 0.91 h. For the same molecule, the figures for the half-life (in “physchem” (setting [9]); in “physchem” (setting [10]); in data set [3]) were 4.8 h, 3.6 h and 2.39 h, respectively. Moreover, the “PANK2−/− CoA (Fold Increase): fold increase in Coenzyme A (CoA) levels relative to controls” value in data set [4] is 1.88 Fold Increase.
With `COC(=O)[C@H](C)NP1(=O)OCC(C)(C)[C@H](C(=O)NCCC(=O)OCCN2CCCC2)O1` (stereo partly drawn) [compound 19, methyl ((4R)-5,5-dimethyl-2-oxido-4-((3-oxo-3-(2-(pyrrolidin-1-yl)ethoxy)propyl)carbamoyl)-1,3,2-dioxaphosphinan-2-yl)-L-alaninate], the half-life at 3 µM was 0.45 h in data set [5] (Diastereoisomer A (upfield shift in 31P NMR), read-out: t1/2, Human Plasma, Diastereoisomer A (converted)); over 1 h in data set [5] (Diastereoisomer B, read-out: t1/2, Human Plasma, Diastereoisomer B (converted)); under 9.6 min in data set [7]. Moreover, the half-life at 5 µM is 0.37 h in data set [1] (setting [11]); 0.31 h in data set [1] (t1/2, Mouse Hepatocytes, Diastereoisomer B); 1.26 h in data set [3] (Diastereoisomer A); 1.16 h in data set [3] (Diastereoisomer B). Besides, the values for the half-life at 1 mM in data set [6] (setting [9]) and in data set [6] (setting [10]) were 4.7 h and 3.7 h, respectively. In addition, in data set [7] (3 µM), the “t1/2, Mouse Plasma, Diastereoisomer B” value is under 9.6 min. In addition, in data set [4], the “PANK2−/− CoA (Fold Increase): fold increase in Coenzyme A (CoA) levels relative to controls” value is recorded as 1.73 Fold Increase.
Take `COC(=O)CCNC(=O)[C@@H]1O[P@@](=O)(OCc2ccccc2)OCC1(C)C` [compound 56, methyl 3-((2S,4R)-2-(benzyloxy)-5,5-dimethyl-2-oxido-1,3,2-dioxaphosphinane-4-carboxamido)propanoate]: the half-life at 5 µM in data set [1] (setting [11]) and in data set [3] (Diastereoisomer A) was under 0.25 h throughout. Moreover, the Papp A→B at 60 min in data set [2] came out at 18.7 ×10⁻⁶ cm/s. For the same molecule, the half-life at 1 mM in data set [6] (setting [9]) is 4.6 h.
With `COC(=O)CCNC(=O)[C@@H]1OP(=O)(NCC2CCCO2)OCC1(C)C` (stereo partly drawn) [compound 116, methyl 3-((4R)-5,5-dimethyl-2-oxido-2-(((tetrahydrofuran-2-yl)methyl)amino)-1,3,2-dioxaphosphinane-4-carboxamido)propanoate], the half-life in “physchem” (setting [9]) and in “physchem” (setting [10]) was over 40 h throughout.
